Data reported in patent publication US20220386611A1, “NOVEL HETEROARYL-TRIAZOLE COMPOUNDS AS PESTICIDES” (Bayer Aktiengesellschaft, priority 2019, published 2022).

Experiments:
Assay type in all cases: in vivo
[1] = test system: Rhipicephalus microplus larvae (strain Parkhurst, resistant against synthetic pyrethroids); assay: Rhipicephalus (Boophilus) microplus in-vitro contact test, larval cattle tick; conditions: 5 μg/cm^2 (=500 g/ha), after 48 hours, read-out: efficacy (larvae dead or moribund)
Experimental: Rhipicephalus (Boophilus) Microplus—In-Vitro Contact Tests Larval Cattle Tick (Strain Parkhurst, Resistant Against Synthetic Pyrethroids)
(§1) 9 mg compound is solved in 1 mL acetone and diluted with acetone to the desired concentration. 250 μL of the test solution is filled in 25 mL glass test tubes and homogeneously distributed on the inner walls by rotation and tilting on a shaking device (2 h at 30 rpm). With a compound concentration of 900 ppm, an inner surface of 44.7 cm^2 and a homogeneous distribution, a dose of 5 μg/cm^2 is achieved.
After the solvent has evaporated, each test tube is filled with 20-50 cattle tick larvae (Rhipicephalus microplus), closed with a perforated lid and incubated in a horizontal position at 85% relative humidity and 27° C. in an incubator. After 48 hours efficacy is determined. The larvae are patted on the ground of the tubes and negative geotactic behaviour is recorded.
An efficacy of 100% means all larvae are dead or moribund; 0% means no larvae are dead or moribund.

[2] = test system: green peach aphid (Myzus persicae); assay: Myzus persicae oral test; conditions: 120 h
Experimental: Solvent: 100 parts by weight acetone
To produce a suitable preparation of active compound, 1 part by weight of active compound is mixed with the stated amount of solvent, and the concentrate is diluted with water to the desired concentration. 50 μL compound solution is filled in microtiter plates and 150 μL IPL41 insect medium (33%+15% sugar) is added to obtain a total volume of 200 μL per well. Afterwards the plates are sealed with parafilm through which a mixed population of the green peach aphid (Myzus persicae) can suck on the compound preparation.
After 5 days mortality in % is determined. 100% means all aphids have been killed and 0% means none of the aphids have been killed.

[3] = test system: larvae of the banded cucumber beetle (Diabrotica balteata); assay: Diabrotica balteata spray test; conditions: 168 h, 100 g/ha (=32 μg/well), after 7 days, wheat seeds, read-out: efficacy (seedlings grown like untreated, uninfected control)
Experimental: Diabrotica balteata—spray test
Solvent: 78.0 parts by weight of acetone
1.5 parts by weight of dimethylformamide
(§2) Emulsifier: alkylarylpolyglycol ether
(§3) To produce a suitable preparation of active compound, 1 part by weight of active compound is mixed with the stated amount of solvent, and the concentrate is diluted with water, containing an emulsifier concentration of 1000 ppm, to the desired concentration. Further test concentrations are prepared by dilution with emulsifier containing water.
Soaked wheat seeds (Triticum aestivum) are placed in a multiple well plate filled with agar and some water and are incubated for 1 day to germinate (5 seeds per well). The germinated wheat seeds are sprayed with a test solution containing the desired concentration of the active ingredient. Afterwards each unit is infected with 10-20 larvae of the banded cucumber beetle (Diabrotica balteata).
After 7 days efficacy in % is determined. 100% means all the seedlings have grown up like in the untreated, uninfected control; 0% means none of the seedlings have grown.

[4] = test system: fall armyworm larvae (Spodoptera frugiperda); assay: Spodoptera frugiperda spray test; conditions: in Zea mays, 168 h
Experimental: Spodoptera frukiperda—Spray Test
Solvent: 78.0 parts by weight acetone • 1.5 parts by weight dimethylformamide
as §2
To produce a suitable preparation of active compound, 1 part by weight of active compound is mixed with the stated amount of solvents and is diluted with water, containing an emulsifier concentration of 1000 ppm, to the desired concentration. Further test concentrations are prepared by dilution with emulsifier containing water.
Maize (Zea mays) leaf sections are sprayed with a preparation of the active ingredient of the desired concentration. Once dry, the leaf sections are infested with fall armyworm larvae (Spodoptera frugiperda).
After 7 days mortality in % is determined. 100% means all caterpillars have been killed and 0% means none of the caterpillars have been killed.

[5] = test system: adult brown dog ticks (Rhipicephalus sanguineus); assay: Rhipicephalus sanguineus in-vitro contact test with adult brown dog ticks; conditions: 5 μg/cm^2 (=500 g/ha), after 48 hours, read-out: efficacy (ticks dead or moribund)
Experimental: Rhipicephalus sanguineus—In-Vitro Contact Tests with Adult Brown Dog Ticks
as §1
After the solvent has evaporated, each test tube is filled with 5-10 adult brown dog ticks (Rhipicephalus sanguineus), closed with a perforated lid and incubated in a lying position at room temperature and relative humidity. After 48 hours efficacy is determined. The ticks are patted on the ground of the tubes and are incubated on a heating plate at 45-50° C. for at most 5 minutes. Immotile or uncoordinated moving ticks, which are not able to escape the heat by climbing upwards, are marked as dead or moribund.
An efficacy of 100% means all ticks are dead or moribund; 0% means no ticks are dead or moribund.

[6] = test system: Musca domestica strain WHO-N; assay: Musca domestica test (MUSCDO surface treatment & contact assay); conditions: 24 hours after contact, read-out: efficacy (mortality)
Experimental: Musca domestica Test (MUSCDO Surface Treatment & Contact Assay)
(§4) Solvent: Aceton+2000 ppm rapeseed oil methyl ester (RME)
In order to produce a sufficient, active ingredient containing solution it is necessary to solve the test compound in the solvent-mix (acetone at 2 mg/ml/RME 2000 ppm). This solution is pipetted onto a glazed tile and after evaporation of the acetone, adult flies of the species Musca domestica strain WHO-N are placed onto the dried surface. The exposure time is 30 minutes. Mortality in percent (%) is determined 24 hours after contact of the insects to the treated surface. 100% mortality means that all tested insects are dead, whereas 0% means that no insect died.

[7] = test system: adult engorged female ticks (Rhipicephalus microplus); assay: Rhipicephalus (Boophilus) microplus injection test; conditions: 168 h, after 7 days, read-out: efficacy (infertile eggs); for pest or weed control at 0.004 mg: 4 μg/animal
Experimental: Rhipicephalus (Boophilus) microplus—Injection Test
(§5) Solvent: dimethyl sulfoxide
To produce a suitable preparation of active compound, 10 mg of active compound are dissolved in 0.5 mL solvent, and the concentrate is diluted with solvent to the desired concentration.
Five adult engorged female ticks (Rhipicephalus microplus) are injected with 1 μL compound solution into the abdomen. The ticks are transferred into replica plates and incubated in a climate chamber.
After 7 days egg deposition of fertile eggs is monitored. Eggs where fertility is not visible are stored in a climate chamber till hatching after about 42 days. An efficacy of 100% means all eggs are infertile; 0% means all eggs are fertile.

[8] = test system: Aedes aegypti strain MONHEIM; assay: Aedes aegypti test (AEDSAE surface treatment & contact assay); conditions: 24 hours after contact, read-out: efficacy (mortality); for mortality at 20 mg/m2: surface concentration 20 mg/m^2, 30 minutes exposure
Experimental: Aedes Aegypti Test (AEDSAE Surface Treatment & Contact Assay)
as §4
(§6) In order to produce a sufficient, active ingredient containing solution it is necessary to solve the test compound in the solvent-mix (acetone at 2 mg/ml/RME 2000 ppm). This solution is pipetted onto a glazed tile and after evaporation of the acetone, adult mosquitoes of the species Aedes aegypti strain MONHEIM are placed onto the dried surface. The exposure time is 30 minutes. Mortality in percent (%) is determined 24 hours after contact of the insects to the treated surface. 100% mortality means that all tested insects are dead, whereas 0% means that no insect died.

[9] = test system: Blattella germanica strain PAULINIA; assay: Blattella germanica test (BLTTGE surface treatment & contact assay); conditions: surface concentration 20 mg/m^2, 30 minutes exposure, 24 hours after contact, read-out: efficacy (mortality)
Experimental: Blattella germanica Test (BLTTGE Surface Treatment & Contact Assay)
as §4
In order to produce a sufficient, active ingredient containing solution it is necessary to solve the test compound in the solvent-mix (acetone at 2 mg/ml/RME 2000 ppm). This solution is pipetted onto a glazed tile and after evaporation of the acetone, adult animals of the species Blattella germanica strain PAULINIA are placed onto the dried surface. The exposure time is 30 minutes. Mortality in percent (%) is determined 24 hours after contact of the insects to the treated surface. 100% mortality means that all tested insects are dead, whereas 0% means that no insect died.

[10] = test system: adult unfed cat fleas (Ctenocephalides felis); assay: Ctenocephalides felis oral test; conditions: 48 h
Experimental: Ctenocephalides felis—Oral Test
as §5
To produce a suitable preparation of active compound, 10 mg of active compound are dissolved in 0.5 ml solvent, and the concentrate is diluted with cattle blood to the desired concentration.
Approximately 20 adult unfed cat fleas (Ctenocephalides felis) are placed in flea chambers. The blood chamber, sealed with parafilm on the bottom, are filled with cattle blood supplied with compound solution and placed on the gauze covered top of the flea chamber, so that the fleas are able to suck the blood. The blood chamber is heated to 37° C. whereas the flea chamber is kept at room temperature.
After 2 days mortality in % is determined. 100% means all the fleas have been killed; 0% means none of the fleas have been killed.

[11] = test system: larvae of the southern green stink bug (Nezara viridula); assay: Nezara viridula spray test; conditions: 96 h, after 4 days, barley plants
Experimental: Nezara viridula—Spray Test
Solvent: 78.0 parts by weight of acetone • • 1.5 parts by weight of dimethylformamide
as §2, §3
Barley plants (Hordeum vulgare) infested with larvae of the southern green stink bug (Nezara viridula) are sprayed with a test solution containing the desired concentration of the active ingredient.
After 4 days mortality in % is determined. 100% means all the stink bugs have been killed; 0% means none of the stink bugs have been killed.

[12] = test system: adult cat fleas (Ctenocephalides felis); assay: Ctenocephalides felis in-vitro contact test, adult cat flea; conditions: after 48 hours, read-out: efficacy (fleas dead or moribund); for pest or weed control at 1 µg/cm2, 100 g/ha: 1 μg/cm^2 (=100 g/ha); for pest or weed control at 5 µg/cm2, 500 g/ha: 5 μg/cm^2 (=500 g/ha)
Experimental: Ctenocephalides felis—In-Vitro Contact Tests Adult Cat Flea 9 mg compound is solved in 1 mL acetone and diluted with acetone to the desired concentration. 250 μL of the test solution is filled in 25 mL glass test tubes and homogeneously distributed on the inner walls by rotation and tilting on a shaking device (2 h at 30 rpm). With a compound concentration of 900 ppm, an inner surface of 44.7 cm^2 and a homogeneous distribution, a dose of 5 μg/cm^2 is achieved.
After the solvent has evaporated, each test tube is filled with 5-10 adult cat fleas (Ctenocephalidesfelis), closed with a perforated lid and incubated in a lying position at room temperature and relative humidity.
After 48 hours efficacy is determined. The fleas are patted on the ground of the tubes and are incubated on a heating plate at 45-50° C. for at most 5 minutes. Immotile or uncoordinated moving fleas, which are not able to escape the heat by climbing upwards, are marked as dead or moribund.
An efficacy of 100% means all fleas are dead or moribund; 0% means no fleas are dead or moribund.

[13] = test system: Anopheles funestus strain FUMOZ-R; assay: Anopheles funestus test (ANPHFU surface treatment & contact assay); conditions: surface concentration 20 mg/m^2, 30 minutes exposure, 24 hours after contact, read-out: efficacy (mortality)
Experimental: Anopheles funestus Test (ANPHFU Surface Treatment & Contact Assay)
as §4
as §6, with “Anopheles funestus” for “Aedes aegypti”, “FUMOZ-R (Hunt et al., Med. Vet. Entomol. 2005 September; 19(3): 271-275)” for “MONHEIM”

[14] = surface concentration 4 mg/m^2, 30 minutes exposure

Row | SMILES | pest or weed control at 5 µg/cm2 [1] [%] | mortality at 4 ppm [2] [%] | pest or weed control at 32 µg/disc, 100 g/ha [3] [%] | mortality at 100 g/ha [4] [%] | pest or weed control at 5 µg/cm2, 500 g/ha [5] [%] | mortality at 4 mg/m2 [6, 14] [%] | mortality at 20 mg/m2 ([6]; surface concentration 20 mg/m^2, 30 minutes exposure) [%] | pest or weed control at 0.004 mg [7] [%] | pest or weed control at 0.02 mg ([7]; 20 μg/animal) [%] | mortality at 20 mg/m2 [8] [%] | mortality at 20 mg/m2 [9] [%] | mortality at 100 ppm [10] [%] | mortality at 100 g/ha [11] [%] | mortality at 4 mg/m2 [8, 14] [%] | pest or weed control at 1 µg/cm2, 100 g/ha [12] [%] | pest or weed control at 5 µg/cm2, 500 g/ha [12] [%] | mortality at 20 mg/m2 [13] [%]
1 | CC(NC(=O)c1cc(Br)cc(C(F)(F)F)c1)c1nc(Cl)nn1-c1ncccn1 (stereo not drawn) [Example I-003] | 100 | 100 | 100 | 100 | 100 | 80 to 100 | 80 to 100 | 100 | 100 | 80 to 100 | 80 to 100 | 100 |  |  |  |  | 
2 | CC(NC(=O)c1cc(Cl)nc(C(F)(F)F)c1)c1nc(Cl)nn1-c1ncccn1 (stereo not drawn) [Example I-008] | 100 |  | 80 |  | 100 |  |  | 100 |  |  |  | 100 | 100 | 80 to 100 | 90 | 90 | 
3 | CC(NC(=O)c1cc(Cl)cc(C(F)(F)F)c1)c1nc(Br)nn1-c1ncccn1 (stereo not drawn) [Example I-016] | 80 | 100 | 100 | 100 |  |  |  | 100 |  | 80 to 100 | 80 to 100 | 100 |  |  |  |  | 80 to 100
4 | CC(NC(=O)c1cc(Cl)nc(C(F)(F)F)c1)c1nc(I)nn1-c1ncccn1 (stereo not drawn) [Example I-024] | 100 |  | 100 |  | 80 |  |  |  |  |  |  |  | 100 |  | 80 | 90 | 
